System: Subjects With Active Crohn's Disease
Test: Total cholesterol determination, Study 5 (Crohn's disease, monotherapy of Compound 1)
Assay type: in vivo, human
Description: Double-Blind, Randomized, Placebo-Controlled, Multi-Centre Study to Investigate the Efficacy and Safety of Compound 1 in Subjects With Active Crohn's Disease With Evidence of Mucosal Ulceration.
This is a double-blind, randomized, placebo-controlled, multi-centre Phase 2 study to investigate the efficacy and safety of Compound 1 administered once daily for the treatment of active CD with evidence of mucosal ulceration. The pharmacokinetics (including a PK substudy) and pharmacodynamics of Compound 1 and metabolite in CD will also be characterised.
A total of 180 eligible subjects will be randomized to receive Compound 1 or placebo in addition to their stable background treatment (eg, corticosteroids, aminosalicylates, or CD-related antibiotics). The study will consist of 2 parts, with total treatment duration of 20 weeks. Randomization in Part 1 will be stratified according the subject's previous anti-TNF exposure/response, CRP level at Screening, and oral corticosteroid use at visit Day −1.
After the first 10 weeks of treatment in Part 1, patients will be re-randomized for Part 2 as shown in the diagram below and will be stratified according to the subject's clinical response, previous anti-TNF exposure/response, and oral corticosteroid use at visit Day −1.
The following assays were conducted at Eurofins Global Central Laboratory, Bergschot 71, 4817 PA Breda, The Netherlands, and at Quest Diagnostics, Clinical Trials, Quest House, 125-135 Staines Road, Hounslow, Middlesex, TW3 3JB, United Kingdom. The assays for Study 5 were performed at BARC Europe, 3B, Industrie Park, Zwijnaarde, B-9052 Ghent, Belgium.
This method is based on the determination of Δ^4 cholestenone after enzymatic cleavage of the cholesterol ester by cholesterol esterase, conversion of cholesterol by cholesterol oxidase, and subsequent measurement by the Trinder reaction of the hydrogen peroxide formed (Allain et al., 1974).
Cholesterol esters are cleaved by the action of cholesterol esterase to yield free cholesterol and fatty acids. Cholesterol oxidase then catalyzes the oxidation of cholesterol to cholest-4-en-3-one and hydrogen peroxide. In the presence of peroxidase, the hydrogen peroxide formed effects the oxidative coupling of phenol and 4-aminophenazone to form a red quinone-imine dye. The color intensity of the dye formed is directly proportional to the cholesterol concentration. It is determined by measuring the increase in absorbance.
Human serum and plasma samples cholesterol determination was done on a Roche/Hitachi Cobas c 701/702 system which automatically calculate the analyte concentration of each sample.

[1] = 200 mg q.d. continued to week 20, week 2
[2] = 200 mg q.d. continued to week 20, week 4
[3] = 200 mg q.d. continued to week 20, week 6
[4] = 200 mg q.d. continued to week 20, week 10
[5] = 200 mg q.d. continued to week 20, week 12
[6] = 200 mg q.d. continued to week 20, week 16
[7] = 200 mg q.d. continued to week 20, week 20
[8] = 200 mg q.d. week 0 to 10, to 100 mg q.d. week 10 to 20, week 2
[9] = 200 mg q.d. week 0 to 10, to 100 mg q.d. week 10 to 20, week 4
[10] = 200 mg q.d. week 0 to 10, to 100 mg q.d. week 10 to 20, week 6
[11] = 200 mg q.d. week 0 to 10, to 100 mg q.d. week 10 to 20, week 10
[12] = 200 mg q.d. week 0 to 10, to 100 mg q.d. week 10 to 20, week 12
[13] = 200 mg q.d. week 0 to 10, to 100 mg q.d. week 10 to 20, week 16
[14] = 200 mg q.d. week 0 to 10, to 100 mg q.d. week 10 to 20, week 20
[15] = 200 mg q.d. week 0 to 10, to placebo week 10 to 20, week 2
[16] = 200 mg q.d. week 0 to 10, to placebo week 10 to 20, week 4
[17] = 200 mg q.d. week 0 to 10, to placebo week 10 to 20, week 6
[18] = 200 mg q.d. week 0 to 10, to placebo week 10 to 20, week 10
[19] = 200 mg q.d. week 0 to 10, to placebo week 10 to 20, week 12
[20] = 200 mg q.d. week 0 to 10, to placebo week 10 to 20, week 16
[21] = 200 mg q.d. week 0 to 10, to placebo week 10 to 20, week 20
[22] = Study 5 10 weeks results, 200 mg q.d., week 2
[23] = Study 5 10 weeks results, 200 mg q.d., week 4
[24] = Study 5 10 weeks results, 200 mg q.d., week 6
[25] = Study 5 10 weeks results, 200 mg q.d., week 10
[26] = Study 5 20 weeks results, 200 mg q.d. to 100 mg q.d. at week 10, week 2
[27] = Study 5 20 weeks results, 200 mg q.d. to 100 mg q.d. at week 10, week 4
[28] = Study 5 20 weeks results, 200 mg q.d. to 100 mg q.d. at week 10, week 6
[29] = Study 5 20 weeks results, 200 mg q.d. to 100 mg q.d. at week 10, week 10
[30] = Study 5 20 weeks results, 200 mg q.d. to 100 mg q.d. at week 10, week 12
[31] = Study 5 20 weeks results, 200 mg q.d. to 100 mg q.d. at week 10, week 16
[32] = Study 5 20 weeks results, 200 mg q.d. to 100 mg q.d. at week 10, week 20
[33] = Study 5 20 weeks results, 200 mg q.d. to placebo at week 10, week 2
[34] = Study 5 20 weeks results, 200 mg q.d. to placebo at week 10, week 4
[35] = Study 5 20 weeks results, 200 mg q.d. to placebo at week 10, week 6
[36] = Study 5 20 weeks results, 200 mg q.d. to placebo at week 10, week 10
[37] = Study 5 20 weeks results, 200 mg q.d. to placebo at week 10, week 12
[38] = Study 5 20 weeks results, 200 mg q.d. to placebo at week 10, week 16
[39] = Study 5 20 weeks results, 200 mg q.d. to placebo at week 10, week 20
[40] = Study 5 20 weeks results, continued 200 mg q.d., week 2
[41] = Study 5 20 weeks results, continued 200 mg q.d., week 4
[42] = Study 5 20 weeks results, continued 200 mg q.d., week 6
[43] = Study 5 20 weeks results, continued 200 mg q.d., week 10
[44] = Study 5 20 weeks results, continued 200 mg q.d., week 12
[45] = Study 5 20 weeks results, continued 200 mg q.d., week 16
[46] = Study 5 20 weeks results, continued 200 mg q.d., week 20
[47] = Study 5 20 weeks results, placebo to 100 mg q.d. at week 10, week 12
[48] = Study 5 20 weeks results, placebo to 100 mg q.d. at week 10, week 16
[49] = Study 5 20 weeks results, placebo to 100 mg q.d. at week 10, week 20
[50] = placebo week 0 to 10, to 100 mg q.d. week 10 to 20, week 12
[51] = placebo week 0 to 10, to 100 mg q.d. week 10 to 20, week 16
[52] = placebo week 0 to 10, to 100 mg q.d. week 10 to 20, week 20

## O=C(Nc1nc2cccc(-c3ccc(CN4CCS(=O)(=O)CC4)cc3)n2n1)C1CC1 [Compound 1, cyclopropanecarboxylic acid {5-[4-(1,1-dioxo-thiomorpholin-4-ylmethyl)-phenyl]-[1,2,4]triazolo[1,5-a]pyridin-2yl}-amide]
[1]
  [Total cholesterol] Mean CFB - 20 weeks results: 7.30%
  [Total cholesterol] Median CFB - 20 weeks results: 5.15%
[2]
  [Total cholesterol] Mean CFB - 20 weeks results: 5.06%
  [Total cholesterol] Median CFB - 20 weeks results: 2.70%
[3]
  [Total cholesterol] Mean CFB - 20 weeks results: 6.70%
  [Total cholesterol] Median CFB - 20 weeks results: 7.88%
[4]
  [Total cholesterol] Mean CFB - 20 weeks results: 11.58%
  [Total cholesterol] Median CFB - 20 weeks results: 9.98%
[5]
  [Total cholesterol] Mean CFB - 20 weeks results: 11.06%
  [Total cholesterol] Median CFB - 20 weeks results: 6.99%
[6]
  [Total cholesterol] Mean CFB - 20 weeks results: 11.13%
  [Total cholesterol] Median CFB - 20 weeks results: 6.91%
[7]
  [Total cholesterol] Mean CFB - 20 weeks results: 11.03%
  [Total cholesterol] Median CFB - 20 weeks results: 5.31%
[8]
  [Total cholesterol] Mean CFB - 20 weeks results: 4.54%
  [Total cholesterol] Median CFB - 20 weeks results: 4.08%
[9]
  [Total cholesterol] Mean CFB - 20 weeks results: 6.72%
  [Total cholesterol] Median CFB - 20 weeks results: 1.92%
[10]
  [Total cholesterol] Mean CFB - 20 weeks results: 6.47%
  [Total cholesterol] Median CFB - 20 weeks results: 5.89%
[11]
  [Total cholesterol] Mean CFB - 20 weeks results: 9.72%
  [Total cholesterol] Median CFB - 20 weeks results: 7.10%
[12]
  [Total cholesterol] Mean CFB - 20 weeks results: 5.38%
  [Total cholesterol] Median CFB - 20 weeks results: 7.04%
[13]
  [Total cholesterol] Mean CFB - 20 weeks results: 2.89%
  [Total cholesterol] Median CFB - 20 weeks results: 2.83%
[14]
  [Total cholesterol] Mean CFB - 20 weeks results: 3.80%
  [Total cholesterol] Median CFB - 20 weeks results: 2.28%
[15]
  [Total cholesterol] Mean CFB - 20 weeks results: 3.98%
  [Total cholesterol] Median CFB - 20 weeks results: 3.93%
[16]
  [Total cholesterol] Mean CFB - 20 weeks results: 6.98%
  [Total cholesterol] Median CFB - 20 weeks results: 6.38%
[17]
  [Total cholesterol] Mean CFB - 20 weeks results: 5.72%
  [Total cholesterol] Median CFB - 20 weeks results: 7.32%
[18]
  [Total cholesterol] Mean CFB - 20 weeks results: 5.28%
  [Total cholesterol] Median CFB - 20 weeks results: 3.89%
[19]
  [Total cholesterol] Mean CFB - 20 weeks results: 1.82%
  [Total cholesterol] Median CFB - 20 weeks results: 3.93%
[20]
  [Total cholesterol] Mean CFB - 20 weeks results: 5.24%
  [Total cholesterol] Median CFB - 20 weeks results: 1.36%
[21]
  [Total cholesterol] Mean CFB - 20 weeks results: 3.92%
  [Total cholesterol] Median CFB - 20 weeks results: 2.50%
200 mg q.d., week 2
  [Total cholesterol] Mean CFB - 10 weeks results: 6.066%
  [Total cholesterol] Median CFB - 10 weeks results: 4.148%
200 mg q.d., week 4
  [Total cholesterol] Mean CFB - 10 weeks results: 5.803%
  [Total cholesterol] Median CFB - 10 weeks results: 3.803%
200 mg q.d., week 6
  [Total cholesterol] Mean CFB - 10 weeks results: 6.458%
  [Total cholesterol] Median CFB - 10 weeks results: 7.187%
200 mg q.d., week 10
  [Total cholesterol] Mean CFB - 10 weeks results: 9.976%
  [Total cholesterol] Median CFB - 10 weeks results: 7.456%
[22]
  [Total cholesterol] Median CFB: 0.200 mmol/L
  [total cholesterol] Mean CFB: 0.231 mmol/L
[23]
  [Total cholesterol] Median CFB: 0.180 mmol/L
  [total cholesterol] Mean CFB: 0.194 mmol/L
[24]
  [Total cholesterol] Median CFB: 0.300 mmol/L
  [total cholesterol] Mean CFB: 0.215 mmol/L
[25]
  [Total cholesterol] Median CFB: 0.340 mmol/L
  [total cholesterol] Mean CFB: 0.401 mmol/L
[26]
  [Total cholesterol] Median CFB: 0.19 mmol/L
  [total cholesterol] Mean CFB: 0.18 mmol/L
[27]
  [Total cholesterol] Median CFB: 0.12 mmol/L
  [total cholesterol] Mean CFB: 0.27 mmol/L
[28]
  [Total cholesterol] Median CFB: 0.28 mmol/L
  [total cholesterol] Mean CFB: 0.26 mmol/L
[29]
  [Total cholesterol] Median CFB: 0.38 mmol/L
  [total cholesterol] Mean CFB: 0.44 mmol/L
[30]
  [Total cholesterol] Median CFB: 0.33 mmol/L
  [total cholesterol] Mean CFB: 0.23 mmol/L
[31]
  [Total cholesterol] Median CFB: 0.13 mmol/L
  [total cholesterol] Mean CFB: 0.09 mmol/L
[32]
  [Total cholesterol] Median CFB: 0.10 mmol/L
  [total cholesterol] Mean CFB: 0.14 mmol/L
[33]
  [Total cholesterol] Median CFB: 0.24 mmol/L
  [total cholesterol] Mean CFB: 0.16 mmol/L
[34]
  [Total cholesterol] Median CFB: 0.34 mmol/L
  [total cholesterol] Mean CFB: 0.27 mmol/L
[35]
  [Total cholesterol] Median CFB: 0.29 mmol/L
  [total cholesterol] Mean CFB: 0.22 mmol/L
[36]
  [Total cholesterol] Median CFB: 0.23 mmol/L
  [total cholesterol] Mean CFB: 0.22 mmol/L
[37]
  [Total cholesterol] Median CFB: 0.18 mmol/L
  [total cholesterol] Mean CFB: 0.04 mmol/L
[38]
  [Total cholesterol] Median CFB: 0.05 mmol/L
  [total cholesterol] Mean CFB: 0.19 mmol/L
[39]
  [Total cholesterol] Median CFB: 0.07 mmol/L
  [total cholesterol] Mean CFB: 0.18 mmol/L
[40]
  [Total cholesterol] Median CFB: 0.21 mmol/L
  [total cholesterol] Mean CFB: 0.27 mmol/L
[41]
  [Total cholesterol] Median CFB: 0.16 mmol/L
  [total cholesterol] Mean CFB: 0.14 mmol/L
[42]
  [Total cholesterol] Median CFB: 0.33 mmol/L
  [total cholesterol] Mean CFB: 0.19 mmol/L
[43]
  [Total cholesterol] Median CFB: 0.47 mmol/L
  [total cholesterol] Mean CFB: 0.43 mmol/L
[44]
  [Total cholesterol] Median CFB: 0.29 mmol/L
  [total cholesterol] Mean CFB: 0.42 mmol/L
[45]
  [Total cholesterol] Median CFB: 0.31 mmol/L
  [total cholesterol] Mean CFB: 0.43 mmol/L
[46]
  [Total cholesterol] Median CFB: 0.26 mmol/L
  [total cholesterol] Mean CFB: 0.40 mmol/L
[47]
  [Total cholesterol] Median CFB: 0.02 mmol/L
  [total cholesterol] Mean CFB: 0.11 mmol/L
[48]
  [Total cholesterol] Median CFB: 0.01 mmol/L
  [total cholesterol] Mean CFB: 0.08 mmol/L
[49]
  [Total cholesterol] Median CFB: 0.10 mmol/L
  [total cholesterol] Mean CFB: 0.03 mmol/L
[50]
  [Total cholesterol] Mean CFB - 20 weeks results: 2.49%
  [Total cholesterol] Median CFB - 20 weeks results: 0.41%
[51]
  [Total cholesterol] Mean CFB - 20 weeks results: 2.84%
  [Total cholesterol] Median CFB - 20 weeks results: 0.19%
[52]
  [Total cholesterol] Mean CFB - 20 weeks results: 1.90%
  [Total cholesterol] Median CFB - 20 weeks results: 2.81%
